Earlier results in patent publication US6919359B2, “Azabicyclic-substituted-heteroaryl compounds for the treatment of disease” (Pfizer Inc, priority 2001, dated 2005).

Columns and labels:
5HT3R = biological target: T1, 5HT3R (Homo sapiens, UniProt P46098)
T1 sequence (P46098 24-478): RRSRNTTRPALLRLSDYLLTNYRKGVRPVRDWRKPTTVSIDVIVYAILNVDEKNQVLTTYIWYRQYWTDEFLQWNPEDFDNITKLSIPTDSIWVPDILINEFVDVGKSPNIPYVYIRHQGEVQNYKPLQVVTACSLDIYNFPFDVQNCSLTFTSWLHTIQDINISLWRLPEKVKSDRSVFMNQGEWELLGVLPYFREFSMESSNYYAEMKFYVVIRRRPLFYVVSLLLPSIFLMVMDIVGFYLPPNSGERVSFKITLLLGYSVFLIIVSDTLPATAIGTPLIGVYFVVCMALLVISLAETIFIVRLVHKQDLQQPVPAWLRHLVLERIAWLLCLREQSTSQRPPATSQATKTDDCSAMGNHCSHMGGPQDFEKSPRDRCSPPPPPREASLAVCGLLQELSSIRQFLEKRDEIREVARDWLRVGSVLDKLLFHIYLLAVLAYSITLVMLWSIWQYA

α7 nAChR = α7 nAChR (Homo sapiens, UniProt P36544)
Chain of α7 nAChR (P36544 23-502): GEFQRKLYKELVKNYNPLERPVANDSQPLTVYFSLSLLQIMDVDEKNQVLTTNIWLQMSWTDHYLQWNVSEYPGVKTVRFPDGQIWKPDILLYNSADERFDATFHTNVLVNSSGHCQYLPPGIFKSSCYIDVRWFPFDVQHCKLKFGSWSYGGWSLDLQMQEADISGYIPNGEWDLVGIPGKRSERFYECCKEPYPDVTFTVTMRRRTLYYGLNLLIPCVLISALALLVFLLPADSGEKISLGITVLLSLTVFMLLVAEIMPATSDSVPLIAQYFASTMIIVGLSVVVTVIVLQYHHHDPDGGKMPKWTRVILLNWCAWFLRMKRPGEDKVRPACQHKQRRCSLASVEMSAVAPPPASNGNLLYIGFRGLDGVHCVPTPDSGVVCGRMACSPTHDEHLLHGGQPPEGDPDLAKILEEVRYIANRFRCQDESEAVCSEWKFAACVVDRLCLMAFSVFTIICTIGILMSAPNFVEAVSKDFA

Compound | activity at the 5HT3R (5HT3R) | activity at the α7 nAChR (α7 nAChR)
COc1ccc(/C=C2\CCCN=C2c2cccnc2)c(OC)c1 [GTS-21] | little activity | –
Cc1nccn1CC1CCc2c(c3ccccc3n2C)C1=O (centres unmarked) [Ondansetron] | – | little activity
